Measurements reported in patent publication US12544393B2, “Apoptosis-mimicking structures for inducing tissue regeneration” (THE REGENTS OF THE UNIVERSITY OF MICHIGAN, priority 2017, dated 2026).

Test system: bone marrow stromal cells (BMSCs)
Test: Transwell migration assay of BMSCs
Format: cell-based, mouse
Protocol: The macrophage culture, co-cultures with apoptosis mimicking structures, and co-cultures with the control microspheres were also used in transwell assays to determine in vitro bone marrow stromal cell migration. Bone marrow stromal cells (BMSCs) were derived from bone marrow flush, and were cultured in α-MEM medium (20% FBS, Pen/Strep, glutamine) for one time (passage) after isolation.
Cell migration was assessed in 24-well plate transwells (Corning, Inc.) with a diameter of 6.5 mm and a pore size of 8 μm coated with 0.2 mg/mL collagen type I (EMD Millipore). BMSCs were placed in the upper chambers. Conditioned media from the macrophage culture, the co-cultures, or α-MEM medium (a negative control) containing CCL-2 protein and 0.2% FBS were added to the lower chambers. After 8 hours, cells were fixed with 2.5% glutaraldehyde for 15 minutes. Cells which remained on top of transwell membranes were removed with cotton swabs. Cells that had migrated through the pores to the lower surface were stained with Gill's Hematoxylin (Sigma-Aldrich). Four fields at 200× magnification were selected at random, photo micrographic images were obtained (shown in FIG. 15C), and the cells in each image were counted (results shown in FIG. 15D).
Different concentrations of recombinant CCL-2 were also examined for increasing BMSC migration.

Question: How did the “increase of BMSCs migration compared with the control medium” value (concentration of 10 ng/ml) turn out when “CCL-2: recombinant C-C motif chemokine ligand 2 protein” was run?
Answer: about 70%

Question: What about the “further increase in BMSCs migration” value (concentration up to 100 ng/ml) of the same substance?
Answer: did not cause further increase
